Patent US4382889A, “Epoxysuccinic acid derivatives” (Taisho Pharmaceutical Co., Ltd., priority 1979, dated 1983)
Structures can show the parent of a compound that is named as a salt.

Key:
papain = biological target: T1, papain (Carica papaya, UniProt P00784); assay: Papain inhibitory activity (method of K. Hanada et al); type: biochemical; details: papain 80 ug/ml, Sigma, 2 x cry.
T1 construct: purchased Sigma Chem. Co
T1 sequence (P00784 134-345): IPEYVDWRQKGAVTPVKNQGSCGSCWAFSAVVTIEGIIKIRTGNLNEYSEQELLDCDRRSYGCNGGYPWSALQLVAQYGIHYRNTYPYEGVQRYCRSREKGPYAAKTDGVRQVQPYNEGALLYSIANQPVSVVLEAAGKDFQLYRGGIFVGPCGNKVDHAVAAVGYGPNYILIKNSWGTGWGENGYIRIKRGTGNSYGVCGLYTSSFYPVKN
Method: Papain inhibitory activity of the compounds of the present invention was assayed by the method of K. Hanada et al, [Argric. Biol. Chem., 42, No. 3, 523(1978)] using papain (80 ug/ml, Sigma Chem. Co., 2 x cry.).

[1] = biological target: T2, calcium-activated neutral thiolprotease (CANP) (Gallus gallus, UniProt P00789); assay: CANP inhibitory activity (method of Ishiura et al); type: biochemical; details: 50% inhibition as molar ratio to the enzyme; CANP from muscle of hereditary muscular dystrophy chicken
T2 construct: CANP prepared from a muscle of hereditary muscular dystrophy chicken; from tissue; host or cells: muscle of hereditary muscular dystrophy chicken
T2 sequence (P00789 1-705): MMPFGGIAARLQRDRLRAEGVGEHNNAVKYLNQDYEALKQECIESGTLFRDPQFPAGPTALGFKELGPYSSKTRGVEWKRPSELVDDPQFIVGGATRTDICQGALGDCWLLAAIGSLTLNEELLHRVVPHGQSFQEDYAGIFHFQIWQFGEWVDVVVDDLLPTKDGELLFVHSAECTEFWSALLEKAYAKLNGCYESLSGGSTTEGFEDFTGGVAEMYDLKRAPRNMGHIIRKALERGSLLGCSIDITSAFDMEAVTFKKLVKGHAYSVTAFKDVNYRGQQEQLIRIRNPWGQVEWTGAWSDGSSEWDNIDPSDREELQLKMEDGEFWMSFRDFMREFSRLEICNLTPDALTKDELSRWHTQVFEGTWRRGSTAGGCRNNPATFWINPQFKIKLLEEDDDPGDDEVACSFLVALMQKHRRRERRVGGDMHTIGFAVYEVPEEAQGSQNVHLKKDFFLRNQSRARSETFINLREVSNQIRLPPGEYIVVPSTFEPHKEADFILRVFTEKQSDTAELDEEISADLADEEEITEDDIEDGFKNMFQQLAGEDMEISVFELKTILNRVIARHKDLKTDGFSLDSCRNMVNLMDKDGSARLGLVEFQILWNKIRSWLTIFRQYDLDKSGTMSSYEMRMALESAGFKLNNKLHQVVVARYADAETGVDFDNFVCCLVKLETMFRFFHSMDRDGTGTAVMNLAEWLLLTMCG
Method: Their muscular dystrophy inhibitory activity was assayed by the method of Ishiura et al, [J. of Biochem., 84, 225(1978)] using CANP prepared from a muscle of hereditary muscular dystrophy chicken, and the resulting value for 50% inhibition in the molar ratios for the enzyme expressed as ID50 (mole/mole) is shown in Table 1.

[2] = Concentration of test compound in rat plasma after subcutaneous administration; type: in vivo; details: sc, 50 mg/kg, an hour after administration
Method: The compounds of the present invention are better absorbed by the subcutaneous route in mammals such as rats or rabbits, as compared with the epoxysuccinic acid derivatives of the German Patent Laid Open Application described above and Chemical Abstracts, 87, 68129a (1977). To determine absorption, these compounds were administered subcutaneously to rat at a dose of 50 mg/kg, and the concentration of the test compound in rat plasma at an hour after the administration was shown in Table 1.

Row | SMILES | Papain ID50 (amount of inhibitor for 50% inhibition) (papain) | CANP Inhibitory Activity ID50 (mole/mole) [1] | concentration at 1 h [2]
1 | CC[C@H](C)[C@H](NC(=O)C1OC1C(=O)OCc1ccccc1)C(=O)N(C)Cc1ccccc1 (mixture of isomers) [Compound 12, N-[N'-(DL-3-trans-benzyloxycarbonyloxirane-2-carbonyl)-L-isoleucyl]-N-methylbenzylamine] | 0.260 µg | 65 mole/mole | 1300 ng/mL
2 | CC(C)C[C@H](NC(=O)C1OC1C(=O)O)C(=O)NC(C)C (mixture of isomers) [Compound 15, N-[N'-(DL-3-trans-carboxyoxirane-2-carbonyl)-L-leucyl]isopropylamine potassium salt] | 0.112 µg | 35 mole/mole | 20000 ng/mL
3 | CC(C)C[C@H](NC(=O)C1OC1C(=O)O)C(=O)NCCc1ccccc1 (mixture of isomers) [Compound 16, N-[N'-(DL-3-trans-carboxyoxirane-2-carbonyl)-L-leucyl]phenethylamine potassium salt] | 0.123 µg | 90 mole/mole | 12000 ng/mL
4 | COC(=O)[C@@H]1CCCN1C(=O)[C@H](CC(C)C)NC(=O)C1OC1C(=O)OCc1ccccc1 (mixture of isomers) [Compound 19, N-(DL-3-trans-benzyloxycarbonyloxirane-2-carbonyl)-L-leucyl-L-proline methyl ester] | 0.123 µg | 23 mole/mole | 1500 ng/mL
5 | CC(C)C[C@H](NC(=O)C1OC1C(=O)OCc1ccccc1)C(=O)N[C@@H](CCCNC(=O)OCc1ccccc1)C(=O)OCc1ccccc1 (mixture of isomers) [Compound 30, N-(DL-3-trans-benzyloxycarbonyloxirane-2-carbonyl)-L-leucyl-δ-carbobenzoxy-L-ornithine benzyl ester] | 0.391 µg | 100 mole/mole | 2000 ng/mL
6 | COC(=O)[C@H](CCCN=C(N)N)NC(=O)[C@H](CC(C)C)NC(=O)C1OC1C(=O)O (mixture of isomers) [Compound 43, N-(DL-3-transcarboxyoxirane-2-carbonyl)-L-leucyl-L-arginine methyl ester] | 0.195 µg | 100 mole/mole | 7000 ng/mL
7 | CC(C)C[C@H](NC(=O)[C@H](CC(C)C)NC(=O)C1OC1C(=O)O)C(=O)O (mixture of isomers) [Compound 45, N-(DL-3-trans-carboxyoxirane-2-carbonyl)-L-leucyl-L-leucine] | 0.236 µg | 64 mole/mole | 15000 ng/mL
8 | CCOC(=O)[C@H]1O[C@@H]1C(=O)O (relative stereo) [A, Ethyl hydrogen epoxysuccinate, reference compound] |  | 5,400 mole/mole | < 1000 ng/mL
9 | O=C(O)[C@H]1O[C@@H]1C(=O)OCc1ccccc1 (relative stereo) [B, Benzyl hydrogen epoxysuccinate, reference compound] |  | 410 mole/mole | < 1000 ng/mL
10 | CCOC(=O)C1OC1C(=O)N[C@@H](CC(C)C)C(=O)OCc1ccccc1 (stereo partly drawn) [C, N--(3ethoxy-carbonyloxirane-2-carbonyl)-L-leucine benzyl ester, reference compound] |  | 580 mole/mole | < 1000 ng/mL
11 | COC(=O)[C@H](CC(C)C)NC(=O)[C@H](Cc1ccccc1)NC(=O)C1OC1C(=O)OCc1ccccc1 (stereo partly shown) [Compound 36] | 0.595 µg | 200 mole/mole | 1800 ng/mL
12 | COC(=O)[C@H](C)NC(=O)[C@@H](NC(=O)C1OC1C(=O)OCc1ccccc1)C(C)C (stereo partly shown) [Compound 42] | 0.595 µg | 120 mole/mole | 1100 ng/mL
13 | O=C(O)C1OC1C(=O)N[C@@H](Cc1ccccc1)C(=O)OCc1ccccc1 (stereo partly drawn) [D, N--(3carboxyoxirane-2-carbonyl)-L-phenylalanine benzyl ester, reference compound] |  | 574 mole/mole | < 1000 ng/mL
14 | CC(C)C[C@H](NC(=O)C1OC1C(=O)O)C(=O)O (stereo partly drawn) [E, N--(3carboxyoxirane-2-carbonyl)-L-leucine, reference compound] |  | 4,600 mole/mole | < 1000 ng/mL
